Experimental data taken from PubChem BioAssay (NCI).
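Assay format: 96-well plates, 48-hour exposure. TGI denotes the concentration required for complete inhibition of growth.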

Legend:
Assay in all cases: NCI anticancer screen, dose series, 48 h
MALME-3M melanoma = system: MALME-3M melanoma
UO-31 renal = system: UO-31 renal
SK-MEL-5 melanoma = system: SK-MEL-5 melanoma
SK-OV-3 ovarian = system: SK-OV-3 ovarian
KM12 colon = system: KM12 colon
MDA-MB-435 = system: MDA-MB-435
OVCAR-4 ovarian = system: OVCAR-4 ovarian
SR leukemia = system: SR leukemia
HOP-62 NSCLC = system: HOP-62 NSCLC
ACHN renal = system: ACHN renal
EKVX NSCLC = system: EKVX NSCLC
NCI-H226 lung = system: NCI-H226 lung
SK-MEL-28 melanoma = system: SK-MEL-28 melanoma
MCF7 breast = system: MCF7 breast
T-47D breast = system: T-47D breast
K-562 leukemia = system: K-562 leukemia
OVCAR-3 ovarian = system: OVCAR-3 ovarian
SNB-75 CNS = system: SNB-75 CNS
RXF 393 renal = system: RXF 393 renal

Compound	TGI (MALME-3M melanoma)	TGI (UO-31 renal)	TGI (SK-MEL-5 melanoma)	TGI (SK-OV-3 ovarian)	TGI (KM12 colon)	TGI (MDA-MB-435)	TGI (OVCAR-4 ovarian)	TGI (SR leukemia)	TGI (HOP-62 NSCLC)	TGI (ACHN renal)	TGI (EKVX NSCLC)	TGI (NCI-H226 lung)	TGI (SK-MEL-28 melanoma)	TGI (MCF7 breast)	TGI (T-47D breast)	TGI (K-562 leukemia)	TGI (OVCAR-3 ovarian)	TGI (SNB-75 CNS)	TGI (RXF 393 renal)
Cc1ccc(C(=O)Oc2ccccc2)cc1N=NN(C)C	> 100 µM	> 100 µM	> 100 µM	> 100 µM	> 100 µM	> 100 µM	> 100 µM	> 100 µM	> 100 µM	> 100 µM	> 100 µM	> 100 µM	> 100 µM	> 100 µM	> 100 µM	> 100 µM	> 100 µM	–	–
C1CCCN(NC2=NCCO2)CC1	> 100 µM	> 100 µM	> 100 µM	–	> 100 µM	> 100 µM	> 100 µM	> 100 µM	> 100 µM	> 100 µM	> 100 µM	> 100 µM	–	> 100 µM	> 100 µM	> 100 µM	> 100 µM	> 100 µM	> 100 µM
COc1cc(C2c3cc4c(cc3C(=O)C3CCC(=O)N32)OCO4)cc(OC)c1O (centres undefined)	–	> 50 µM	–	> 50 µM	> 50 µM	> 50 µM	> 50 µM	> 50 µM	> 50 µM	> 50 µM	> 50 µM	> 50 µM	> 50 µM	> 50 µM	> 50 µM	> 50 µM	> 50 µM	> 50 µM	> 50 µM
CC(=O)/C(=C\I)c1ccccc1	3.33 µM	10.3 µM	–	26.5 µM	13.3 µM	12.8 µM	–	–	46.9 µM	–	33.3 µM	47.6 µM	10.4 µM	4.05 µM	3.83 µM	4.61 µM	3.23 µM	20.3 µM	3.36 µM
Cc1ccc2nc(NS(=O)(=O)c3cc(C)c(Cl)cc3S)[nH]c2c1	> 100 µM	> 100 µM	> 100 µM	> 100 µM	> 100 µM	> 100 µM	> 100 µM	> 100 µM	> 100 µM	> 100 µM	> 100 µM	–	> 100 µM	> 100 µM	> 100 µM	> 100 µM	> 100 µM	> 100 µM	> 100 µM
C1CSCC2(COC2)CSCCSCC2(COC2)CS1	–	> 100 µM	> 100 µM	> 100 µM	> 100 µM	> 100 µM	> 100 µM	> 100 µM	> 100 µM	–	> 100 µM	–	> 100 µM	> 100 µM	> 100 µM	> 100 µM	> 100 µM	> 100 µM	–
CCCCCCCCCCCCOCC1(COCCCCCCCCCCCC)COC(c2ccc(N)cc2)OC1	> 100 µM	> 100 µM	> 100 µM	> 100 µM	> 100 µM	> 100 µM	> 100 µM	> 100 µM	> 100 µM	> 100 µM	> 100 µM	> 100 µM	> 100 µM	> 100 µM	> 100 µM	> 100 µM	> 100 µM	> 100 µM	–
O=C1CSC(c2ccccc2O)N1c1ccc(-n2c(-c3ccccc3)nc3ccccc3c2=O)cc1 (centres undefined)	74.6 µM	77.2 µM	35.9 µM	95.3 µM	97.7 µM	81.5 µM	> 100 µM	> 100 µM	77.5 µM	83.6 µM	–	97.5 µM	> 100 µM	> 100 µM	65.8 µM	> 100 µM	41.5 µM	> 100 µM	> 100 µM
O=C1OC([C@H](O)c2cccnc2)c2ccccc21 (some centres undefined)	–	> 10 µM	> 10 µM	> 10 µM	> 10 µM	> 10 µM	> 10 µM	> 10 µM	> 10 µM	> 10 µM	> 10 µM	> 10 µM	> 10 µM	> 10 µM	> 10 µM	> 10 µM	> 10 µM	> 10 µM	> 10 µM
COC(=O)/C=C/[C@@H]1[C@H](C)N1S(=O)(=O)c1ccc(C)cc1 (some centres undefined)	> 100 µM	–	> 100 µM	> 100 µM	–	> 100 µM	> 100 µM	> 100 µM	> 100 µM	> 100 µM	> 100 µM	> 100 µM	> 100 µM	> 100 µM	> 100 µM	> 100 µM	> 100 µM	–	> 100 µM
NC(=O)[N+](=CC(=S)Nc1ccccc1Cl)C(N)=O	–	> 100 µM	> 100 µM	> 100 µM	> 100 µM	> 100 µM	> 100 µM	> 100 µM	> 100 µM	> 100 µM	> 100 µM	> 100 µM	–	> 100 µM	> 100 µM	> 100 µM	> 100 µM	–	> 100 µM
COc1ccccc1C(=O)N(Cc1ccccc1)c1ccc(Cl)c(C(=O)OC(C)C)c1	85.9 µM	54.1 µM	26.1 µM	> 91.7 µM	> 81 µM	> 100 µM	> 100 µM	–	85.8 µM	96.8 µM	> 87.8 µM	58 µM	> 100 µM	> 100 µM	78.7 µM	> 100 µM	> 100 µM	> 77.5 µM	62.1 µM
O=C1Oc2ccccc2C(=O)/C1=C/N1C(=O)CNC1=S	–	> 100 µM	> 100 µM	> 100 µM	> 100 µM	> 100 µM	> 100 µM	–	> 100 µM	> 100 µM	> 100 µM	> 100 µM	> 100 µM	> 100 µM	> 100 µM	> 100 µM	> 100 µM	–	> 100 µM
